Source: patent US8148391B2 (Cephalon, Inc., priority 2006, dated 2012)
Where two headings read alike, the source gives them in different places.

Tests used:
[1] = target: T1, baculovirus-expressed ALK (Homo sapiens, UniProt Q9UM73); experiment: ALK Kinase Assay (ELISA-type, time-resolved fluorescence); format: biochemical
T1 construct: host or cells: baculovirus expression system
Procedure, shortened: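 Plates coated with phospholipase C-γ substrate (10 μg/mL in TBS); reaction started with 30 ng/ml ALK and run 15 min at 37° C. Phosphorylated substrate detected with Eu-N1-labeled PT66 antibody. IC50 from sigmoidal variable-slope fit of percent inhibition vs log concentration.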

[2] = target: T2, c-Met (cytoplasmic domain) (Homo sapiens, UniProt P08581); experiment: c-Met Kinase Assay (same methods as for ALK, with modifications); format: biochemical
T2 construct: 10 ng/mL c-Met (cytoplasmic domain, Invitrogen Corporation #PV3143); purchased Invitrogen Corporation PV3143
T2 sequence (P08581 956-1390 limits assumed): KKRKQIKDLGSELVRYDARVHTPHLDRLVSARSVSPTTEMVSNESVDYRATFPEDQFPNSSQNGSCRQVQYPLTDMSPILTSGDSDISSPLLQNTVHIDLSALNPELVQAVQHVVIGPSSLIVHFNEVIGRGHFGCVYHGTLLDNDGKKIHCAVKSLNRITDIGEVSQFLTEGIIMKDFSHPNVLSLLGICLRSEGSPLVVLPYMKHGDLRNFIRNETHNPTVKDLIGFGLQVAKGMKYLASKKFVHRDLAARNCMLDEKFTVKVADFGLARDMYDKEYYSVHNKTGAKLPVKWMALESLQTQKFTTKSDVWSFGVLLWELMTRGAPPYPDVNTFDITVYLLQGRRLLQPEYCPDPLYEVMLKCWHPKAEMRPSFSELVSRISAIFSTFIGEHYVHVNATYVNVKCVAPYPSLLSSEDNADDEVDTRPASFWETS
Procedure, shortened: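 Plates were coated with phospholipase C-γ substrate (10 μg/mL) in TBS, and the reaction was started with 10 ng/mL c-Met cytoplasmic domain and run 15 min at 37 °C. Phosphoproduct was detected with Eu-N1-labelled PT66 antibody. IC50 came from a variable-slope sigmoidal fit of percent inhibition vs log concentration.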

[3] = ALK kinase inhibition, 1 μM ATP, read-out: ALK Activity
[4] = c-Met kinase inhibition, 1 μM ATP, read-out: cMet Activity

T1 sequence (Q9UM73 19-1620): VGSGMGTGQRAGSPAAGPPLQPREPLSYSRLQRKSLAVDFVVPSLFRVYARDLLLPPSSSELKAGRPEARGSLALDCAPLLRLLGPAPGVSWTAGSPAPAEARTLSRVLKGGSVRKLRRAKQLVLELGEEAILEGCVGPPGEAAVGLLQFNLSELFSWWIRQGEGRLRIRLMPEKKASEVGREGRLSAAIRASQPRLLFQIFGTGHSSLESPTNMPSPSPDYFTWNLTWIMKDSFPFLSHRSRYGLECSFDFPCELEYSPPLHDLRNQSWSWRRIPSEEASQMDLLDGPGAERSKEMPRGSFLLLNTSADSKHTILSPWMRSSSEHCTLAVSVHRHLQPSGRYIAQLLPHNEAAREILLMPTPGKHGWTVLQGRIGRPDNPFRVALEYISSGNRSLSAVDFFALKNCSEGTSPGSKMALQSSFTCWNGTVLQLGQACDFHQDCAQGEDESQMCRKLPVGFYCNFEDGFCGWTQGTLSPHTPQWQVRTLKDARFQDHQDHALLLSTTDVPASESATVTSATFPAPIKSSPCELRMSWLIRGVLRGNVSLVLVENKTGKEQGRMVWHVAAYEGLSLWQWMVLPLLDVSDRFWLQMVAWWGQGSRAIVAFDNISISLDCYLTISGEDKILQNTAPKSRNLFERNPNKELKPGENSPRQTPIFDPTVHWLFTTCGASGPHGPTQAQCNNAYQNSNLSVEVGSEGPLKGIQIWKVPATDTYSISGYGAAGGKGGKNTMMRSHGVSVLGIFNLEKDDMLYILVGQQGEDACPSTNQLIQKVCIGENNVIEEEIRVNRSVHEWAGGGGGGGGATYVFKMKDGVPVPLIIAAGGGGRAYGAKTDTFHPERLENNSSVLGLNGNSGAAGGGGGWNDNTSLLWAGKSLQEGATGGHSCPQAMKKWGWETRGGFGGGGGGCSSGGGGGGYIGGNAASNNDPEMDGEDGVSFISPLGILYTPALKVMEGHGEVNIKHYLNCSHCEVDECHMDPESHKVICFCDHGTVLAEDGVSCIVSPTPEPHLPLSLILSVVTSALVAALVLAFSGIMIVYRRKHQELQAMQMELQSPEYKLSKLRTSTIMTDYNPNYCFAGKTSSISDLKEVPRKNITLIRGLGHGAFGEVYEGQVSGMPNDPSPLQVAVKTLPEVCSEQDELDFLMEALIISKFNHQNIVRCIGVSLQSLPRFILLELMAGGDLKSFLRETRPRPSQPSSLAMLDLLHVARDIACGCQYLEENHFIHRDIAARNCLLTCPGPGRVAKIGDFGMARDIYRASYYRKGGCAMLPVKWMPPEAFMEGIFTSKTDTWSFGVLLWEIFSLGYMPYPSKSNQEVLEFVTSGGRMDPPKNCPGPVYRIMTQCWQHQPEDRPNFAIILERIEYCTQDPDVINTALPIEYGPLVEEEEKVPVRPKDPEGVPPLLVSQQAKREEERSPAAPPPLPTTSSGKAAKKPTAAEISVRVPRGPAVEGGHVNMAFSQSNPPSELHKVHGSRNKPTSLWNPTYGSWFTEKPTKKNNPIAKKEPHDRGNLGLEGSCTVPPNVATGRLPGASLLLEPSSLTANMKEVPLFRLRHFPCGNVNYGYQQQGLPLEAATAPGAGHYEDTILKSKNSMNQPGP

SMILES | IC50 ([1]; 1 μM ATP (Km level), 30 ng/ml ALK, 37° C., 15 minutes, read-out: ALK Activity (ALK kinase inhibition, IC50 class)) | IC50 ([2]; 1 μM ATP (Km level), 10 ng/mL c-Met, read-out: cMet Activity (c-Met kinase inhibition, IC50 class)) | IC50 [1, 3] | IC50 [2, 4]
C#CCNC(=O)c1cccc(F)c1Nc1nc(Nc2ccc3c(c2)OCCCN3C(=O)OCCOC)ncc1Cl [Example 1437, 3-[5-Chloro-4-(2-fluoro-6-prop-2-ynylcarbamoyl-phenylamino)-pyrimidin-2-ylamino]-7,8-dihydro-6H-5-oxa-9-aza-benzocycloheptene-9-carboxylic acid 2-methoxy-ethyl ester] | < 100 nM | 100 to 1000 nM |  | 
CNC(=O)c1cccc(F)c1Nc1nc(Nc2ccc3c(c2)OCCCN3C(=O)OC2CCCN(C)C2)ncc1Cl (stereo not shown) [Example 1438, 3-[5-Chloro-4-(2-fluoro-6-methylcarbamoyl-phenylamino)-pyrimidin-2-ylamino]-7,8-dihydro-6H-5-oxa-9-aza-benzocycloheptene-9-carboxylic acid 1-methyl-piperidin-3-yl ester] |  |  | < 100 nM | < 100 nM
C#CCNC(=O)c1cccc(F)c1Nc1nc(Nc2ccc3c(c2)OCCCN3C(=O)OC2CCCN(C)C2)ncc1Cl (stereo not shown) [Example 1439, 3-[5-Chloro-4-(2-fluoro-6-prop-2-ynylcarbamoyl-phenylamino)-pyrimidin-2-ylamino]-7,8-dihydro-6H-5-oxa-9-aza-benzocycloheptene-9-carboxylic acid 1-methyl-piperidin-3-yl ester] |  |  | 100 to 1000 nM | 100 to 1000 nM
CNC(=O)c1sccc1Nc1nc(Nc2ccc3c(c2)OCCCN3C(=O)OC2CCCN(C)C2)ncc1Cl (stereo not shown) [Example 1440, 3-[5-Chloro-4-(2-methylcarbamoyl-thiophen-3-ylamino)-pyrimidin-2-ylamino]-7,8-dihydro-6H-5-oxa-9-aza-benzocycloheptene-9-carboxylic acid 1-methyl-piperidin-3-yl ester] |  |  | 100 to 1000 nM | 100 to 1000 nM
CCN1CCNC(=O)c2ccc(Nc3ncc(Cl)c(N[C@@H]4CCCC[C@H]4NS(C)(=O)=O)n3)cc21 [Example 1451, N-{(1R,2R)-2-[5-Chloro-2-(1-ethyl-5-oxo-2,3,4,5-tetrahydro-1H-benzo[e][1,4]diazepin-8-ylamino)-pyrimidin-4-ylamino]-cyclohexyl}-methanesulfonamide] |  |  | < 100 nM | 100 to 1000 nM
CCN1CCNC(=O)c2ccc(Nc3ncc(Cl)c(Nc4ccccc4C(=O)NC)n3)cc21 [Example 1452, 2-[5-Chloro-2-(1-ethyl-5-oxo-2,3,4,5-tetrahydro-1H-benzo[e][1,4]diazepin-8-ylamino)-pyrimidin-4-ylamino]-N-methyl-benzamide] |  |  | < 100 nM | < 100 nM
CCN1CCNC(=O)c2ccc(Nc3ncc(Cl)c(Nc4ccccc4-c4nccn4C)n3)cc21 [Example 1453, 8-{5-Chloro-4-[2-(1-methyl-1H-imidazol-2-yl)-phenylamino]-pyrimidin-2-ylamino}-1-ethyl-1,2,3,4-tetrahydro-benzo[e][1,4]diazepin-5-one] |  |  | < 100 nM | 100 to 1000 nM
CCN1CCNc2cc(Nc3ncc(Cl)c(Nc4c(F)cccc4C(=O)NC)n3)ccc2C1=O [Example 1454, 2-[5-Chloro-2-(4-ethyl-5-oxo-2,3,4,5-tetrahydro-1H-benzo[e][1,4]diazepin-8-ylamino)-pyrimidin-4-ylamino]-3-fluoro-N-methyl-benzamide] |  |  | 100 to 1000 nM | < 100 nM
CCN1CCNC(=O)c2ccc(Nc3ncc(Cl)c(Nc4ccccc4OCCN4CCOCC4)n3)cc21 [Example 1455, 8-{5-Chloro-4-[2-(2-morpholin-4-yl-ethoxy)-phenylamino]-pyrimidin-2-ylaminol}-1-ethyl-1,2,3,4-tetrahydro-benzo[e][1,4]diazepin-5-one] |  |  | > 10000 nM | > 10000 nM
CCN1CCN(CC)c2cc(Nc3ncc(Cl)c(N[C@@H]4CCCC[C@H]4NS(C)(=O)=O)n3)c(OC)cc2C1 [Example 1456, N-{(1R,2R)-2-[5-Chloro-2-(1,4-diethyl-7-methoxy-2,3,4,5-tetrahydro-1H-benzo[e][1,4]diazepin-8-ylamino)-pyrimidin-4-ylamino]-cyclohexyl}-methanesulfonamide] |  |  | < 100 nM | > 10000 nM
CCN1CCN(CC(=O)OCCOC)C(=O)c2ccc(Nc3ncc(Cl)c(N[C@H]4[C@@H]5CC[C@@H](C5)[C@H]4C(N)=O)n3)cc21 [Example 1457, {8-[4-((1R,2S,3R,4S)-3-Carbamoyl-bicyclo[2.2.1]hept-2-ylamino)-5-chloro-pyrimidin-2-ylamino]-1-ethyl-5-oxo-1,2,3,5-tetrahydro-benzo[e][1,4]diazepin-4-yl}-acetic acid 2-methoxy-ethyl ester] |  |  | < 100 nM | 1000 to 10000 nM
CCN1CCN(CC(=O)OCCOC)C(=O)c2ccc(Nc3ncc(Cl)c(Nc4c(F)cccc4C(=O)NC)n3)cc21 [Example 1458, {8-[5-Chloro-4-(2-fluoro-6-methylcarbamoyl-phenylamino)-pyrimidin-2-ylamino]-1-ethyl-5-oxo-1,2,3,5-tetrahydro-benzo[e][1,4]diazepin-4-yl}-acetic acid 2-methoxy-ethyl ester] |  |  | 100 to 1000 nM | < 100 nM
CCN1CCN(CC(=O)OCCOC)C(=O)c2ccc(Nc3ncc(Cl)c(Nc4ccccc4C(=O)NC)n3)cc21 [Example 1459, {8-[5-Chloro-4-(2-methylcarbamoyl-phenylamino)-pyrimidin-2-ylamino]-1-ethyl-5-oxo-1,2,3,5-tetrahydro-benzo[e][1,4]diazepin-4-yl}-acetic acid 2-methoxy-ethyl ester] |  |  | < 100 nM | < 100 nM
CCN1CCNCc2cc(OC)c(Nc3ncc(Cl)c(N[C@H]4[C@@H](C(N)=O)[C@@H]5C=C[C@H]4C5)n3)cc21 [Example 1460, (1S,2S,3R,4R)-3-[5-Chloro-2-(1-ethyl-7-methoxy-2,3,4,5-tetrahydro-1H-benzo[e][1,4]diazepin-8-ylamino)-pyrimidin-4-ylamino]-bicyclo[2.2.1]hept-5-ene-2-carboxylic acid amide] |  |  | < 100 nM | > 10000 nM
CCN1CCN(CC(=O)N(C)C)Cc2cc(OC)c(Nc3ncc(Cl)c(N[C@@H]4CCCC[C@H]4NS(C)(=O)=O)n3)cc21 [Example 1461, 2-{8-[5-Chloro-4-((1R,2R)-2-methanesulfonylamino-cyclohexylamino)-pyrimidin-2-ylamino]-1-ethyl-7-methoxy-1,2,3,5-tetrahydro-benzo[e][1,4]diazepin-4-yl}-N,N-dimethyl-acetamide] |  |  | < 100 nM | > 10000 nM
COc1cc2c(cc1Nc1ncc(Cl)c(N[C@@H]3CCCC[C@H]3NS(C)(=O)=O)n1)NC(=O)CN(C(=O)C(F)(F)F)C2(C)C [Example 1463, N-((1R,2R)-2-{5-Chloro-2-[7-methoxy-5,5-dimethyl-2-oxo-4-(2,2,2-trifluoro-acetyl)-2,3,4,5-tetrahydro-1H-benzo[e][1,4]diazepin-8-ylamino]-pyrimidin-4-ylamino}-cyclohexyl)-methanesulfonamide] |  |  | < 100 nM | > 10000 nM
O=C1CCCc2ccc(Nc3ncc(Cl)c(Nc4ccccc4OCCN4CCOCC4)n3)cc2N1 [Example 1465, 8-{5-Chloro-4-[2-(2-morpholin-4-yl-ethoxy)-phenylamino]-pyrimidin-2-ylamino}-1,3,4,5-tetrahydro-benzo[b]azepin-2-one] |  |  | > 10000 nM | > 10000 nM
COCCN1CCc2ccc(Nc3ncc(Cl)c(Nc4ccccc4OCCN4CCOCC4)n3)cc2CC1 [Example 1466, 5-Chloro-N*2*-[3-(2-methoxy-ethyl)-2,3,4,5-tetrahydro-1H-enzo[d]azepin-7-yl]-N*4*-[2-(2-morpholin-4-yl-ethoxy)-phenyl]-pyrimidine-2,4-diamine] |  |  | 1000 to 10000 nM | > 10000 nM
CNC(=O)c1cccc(F)c1Nc1nc(Nc2ccc3c(c2)CCN(CCOC)CC3)ncc1Br [Example 1471, 2-{5-Bromo-2-[3-(2-methoxy-ethyl)-2,3,4,5-tetrahydro-1H-benzo[d]azepin-7-ylamino]-pyrimidin-4-ylamino}-3-fluoro-N-methyl-benzamide] |  |  | < 100 nM | < 100 nM
CNC(=O)c1cccc(F)c1Nc1nc(Nc2ccc3c(c2)CCCC(=O)N3CCOC)ncc1Br [Example 1472, 2-{5-Bromo-2-[1-(2-methoxy-ethyl)-2-oxo-2,3,4,5-tetrahydro-1H-benzo[b]azepin-7-ylamino]-pyrimidin-4-ylamino}-3-fluoro-N-methyl-benzamide] |  |  | < 100 nM | < 100 nM
CNC(=O)c1cccc(F)c1Nc1nc(Nc2ccc3c(c2)N(CCOC)C(=O)CCC3)ncc1Br [Example 1473, 2-{5-Bromo-2-[1-(2-methoxy-ethyl)-2-oxo-2,3,4,5-tetrahydro-1H-benzo[b]azepin-8-ylamino]-pyrimidin-4-ylamino}-3-fluoro-N-methyl-benzamide] |  |  | 100 to 1000 nM | < 100 nM
CNC(=O)c1cccc(F)c1Nc1nc(Nc2ccc3c(c2)N(C(C)C)C(=O)CCC3)ncc1Cl [Example 1474, 2-[5-Chloro-2-(1-isopropyl-2-oxo-2,3,4,5-tetrahydro-1H-benzo[b]azepin-8-ylamino)-pyrimidin-4-ylamino]-3-fluoro-N-methyl-benzamide] |  |  | < 100 nM | 100 to 1000 nM
Cc1cccc(C(N)=O)c1Nc1nc(Nc2ccc3c(c2)N(C(C)C)C(=O)CCC3)ncc1Cl [Example 1475, 2-[5-Chloro-2-(1-isopropyl-2-oxo-2,3,4,5-tetrahydro-1H-benzo[b]azepin-8-ylamino)-pyrimidin-4-ylamino]-3-methyl-benzamide] |  |  | 100 to 1000 nM | > 10000 nM
